Assay results taken from article PMC6290777, “Inhalation of the prodrug PI3K inhibitor CL27c improves lung function in asthma and fibrosis” (Nature Communications, 2018).

Columns and labels:
[1] = Pharmacokinetics of aerosolized CL27c (analysis of lung delivery); type: in vivo, C57BL/6J mice; settings: for Lung concentration / Plasma concentration: label = analyte; for detectability in plasma after inhalation: aerosolized CL27c, traces only 1 h after the highest dose
Description: (§1) To define whether this prodrug was suitable for inhaled administration, CL27c was studied to evaluate selected ADME (absorption, distribution, metabolism, and excretion) and pharmacokinetic properties. First, stability of CL27c and CL27e was analyzed in mouse plasma (Supplementary Table 1) and in mouse, rat, and human liver microsomes in the presence of nicotinamide adenine dinucleotide phosphate (NADPH; Supplementary Table 2). Next, clearance of CL27c was analyzed in C57BL/6J mice after either intra-venous or oral administration. […] Clearance of CL27c and CL27e after oral administration could not be determined due to their low bioavailability (Supplementary Table 3). Next, pharmacokinetics after inhalation was studied in C57BL/6J mice after delivering an aerosolized micro-suspension of CL27c. As shown in Table 1 and Supplementary Fig. 1b, CL27c dose-dependently reached the lungs and its metabolite CL27e was detectable after inhalation of the highest dose. […] Therefore, the inhaled prodrug promotes local effects but prevents systemic absorption of pharmacologically relevant amounts of the active compound.
Mice were subjected to a 30-min aerosolized treatment with CL27c or vehicle (0.5% tyloxapol/saline solution)-containing solutions, where tyloxapol was added to improve distribution in the lungs. Mice were anesthetized at 1, 3, and 6 h after aerosolized treatment, the trachea was exposed and a 1.7-mm-outside-diameter polyethylene catheter was inserted and they were subsequently sacrificed. A syringe with a needle (27 G) pretreated with heparin was inserted into the vena cava above the renal veins to collect blood. After the collection of blood, lungs were subjected to bronchoalveolar lavage with three different 500 µl aliquots of acetonitrile. At the same time blood samples were centrifuged 180× g at 22 °C for 10 min, plasma supernatant was collected and treated with 1 volume of acetonitrile to precipitate proteins. Samples were then agitated on a high-speed vortex for 2 min and further mixed using a rotary shaker for 2 min. the precipitated proteins were then pelleted by centrifugation at 10,000× g for 10 min and the supernatant was transferred in a new tube. BALF and plasma extracts were subsequently subjected to Liquid chromatography-mass spectrometry.
A Nexera LC-30AD (Shimadzu, Milan, Italy) instrument equipped with a Luna C18 150 × 2.1 mm, 3 µm particle size column (Phenomenex, Milan, Italy) was used to carry out chromatography analysis. The eluents (VWR, Milan, Italy) were acetonitrile (A) and 0.1% formic acid (B) in the following gradient conditions: from 10 to 54% of solvent A in 21 min, up to 100% of A in 2 min and re-equilibration. The injection volume was 10 µL, the flow rate was […] and the column was maintained at the temperature of 40 °C. For the chromatographic separation, an octadecylsilica column was used. The employed mass analyzer was a Q-trap used in multiple reaction-monitoring (MRM) mode. With this technique, it was possible to detect and quantify simultaneously the drug and the metabolite with high selectivity and sensitivity. A QTrap-5500 (Sciex, Milan, Italy) instrument, dressed with a Turbo Ion Spray source, was utilized to analyze samples. The source parameters were: curtain gas 30 (arbitrary units, a.u.), gas1 40 (a.u.), gas2 55 (a.u.), temperature 500 °C, ion spray voltage 5500 V, declustering potential 200 (a.u), and entrance potential 11 (a.u.). The detector was used in MRM mode and the transitions for each compound were: 446 > 418 m/z and 446 > 401 m/z for CL27C (collision energy 29, collision exit potential 26 and 28, respectively); 432 > 387 m/z and 432 > 404 m/z for CL27e (collision energy 30 and 28, collision exit potential 26 and 27, respectively).

[2] = In vitro plasma stability; type: in vitro ADME, mouse
Description: as §1
Supplementary Table 1. In vitro plasma half-life (t1/2), (mouse plasma).
Values are the mean of at least triplicate determination in a single experiment.

class I PI3K = settings: purified proteins; cited from earlier work
[3] = Pharmacokinetics of a single dose of CL27c (i.v. or p.o.); type: in vivo, C57BL/6J mice; settings: for Cmax: plasma; for Cmax / AUClast / AUCtot / CL (apparent total body clearance) / F (bioavailability) / Tmax / Vss / Vz / t½ (elimination half-life): label = analyte
Description: as §1
Supplementary Table 3. Pharmacokinetic parameters of a single dose of CL27c […]
I.V. (10 mg/kg) P.O. (50 mg/kg) […]
Legend:I.V,. Intravenous administration; P.O., […]; Cmax, Maximum (peak) plasma drug concentration; AUClast Area under the plasma concentration-time curve from time zero to time of last measurable concentration; AUCtot Area under the plasma-concentration time curve; t½, Elimination half -life: CL, Apparent total body clearance of CL27c from plasma; Vz, Apparent volume of distribution during terminal phase; Vss, Apparent volume of distribution at steady state;F, Bioavalability.

[4] = aerosolized 2 mg/ml CL27c, 1 h from exposure
[5] = aerosolized 2 mg/ml CL27c, 3 h from exposure
[6] = aerosolized 2 mg/ml CL27c, 6 h from exposure

Structure (SMILES) | Lung concentration [1, 4] [ng/g] | Plasma concentration [1, 4] [ng/mL] | Lung concentration [1, 5] [ng/g] | Lung concentration [1, 6] [ng/g] | detectability in plasma after inhalation [1] | Concentration in mouse plasma ([2]; time point 0 min) [ng/mL] | Concentration in mouse plasma ([2]; time point 30 min) [ng/mL] | activity in PI3K enzymatic assay (class I PI3K) | Cmax ([3]; CL27c I.V. 10 mg/kg) [ng/mL] | AUClast ([3]; CL27c I.V. 10 mg/kg) [ng·h/mL] | AUCtot ([3]; CL27c I.V. 10 mg/kg) [ng·h/mL] | CL (apparent total body clearance) ([3]; CL27c I.V. 10 mg/kg) [mL/min/kg] | F (bioavailability) ([3]; CL27c I.V. 10 mg/kg) [%] | Tmax ([3]; CL27c I.V. 10 mg/kg) [min] | Vss ([3]; CL27c I.V. 10 mg/kg) [L/kg] | Vz ([3]; CL27c I.V. 10 mg/kg) [L/kg] | t½ (elimination half-life) ([3]; CL27c I.V. 10 mg/kg) [min] | Cmax ([3]; CL27c P.O. 50 mg/kg) [ng/mL] | AUClast ([3]; CL27c P.O. 50 mg/kg) [ng·h/mL] | AUCtot ([3]; CL27c P.O. 50 mg/kg) [ng·h/mL] | further results
COC(=O)c1cccc(Cn2cc(-c3cccc4c(=O)cc(N5CCOCC5)[nH]c34)nn2)c1 [CL27c] | 169.2 ± 17.7 | 1.2 ± 0.1 | 34.2 ± 5.2 | 41.6 ± 6.5 | generally undetectable | 113.2 ± 12.8 | 6.2 ± 2.8 | inactive | 930 | 870 | 870 | 191 | 100 | 4.8 | 13.55 | 10.75 | 39 | 220 | 150 | 390 | Lung concentration ([1]; aerosolized 0.2 mg/ml CL27c, 1 h from exposure): 32.6 ± 5.1 ng/g; Lung concentration ([1]; aerosolized 0.2 mg/ml CL27c, 3 h from exposure): 10.9 ± 0.5 ng/g; Lung concentration ([1]; aerosolized 0.2 mg/ml CL27c, 6 h from exposure): 10.9 ± 1.8 ng/g; F (bioavailability) ([3]; CL27c P.O. 50 mg/kg): 3.40%; Tmax ([3]; CL27c P.O. 50 mg/kg): 30 min; t½ (elimination half-life) ([3]; CL27c P.O. 50 mg/kg): 63 min
O=C(O)c1cccc(Cn2cc(-c3cccc4c(=O)cc(N5CCOCC5)[nH]c34)nn2)c1 [CL27e] | 4.5 ± 1.0 | 1.34 ± 0.62 | 0.1 ± 0.1 | 0.5 ± 0.2 | generally undetectable | 45.3 ± 14.1 | 43.6 ± 7.4 | potent pan-class I PI3K inhibitor, acting at nanomolar concentration | 1900 | 980 | 1050 | 191 | 91 | 4.8 | 13.55 | 10.75 | 75 | 290 | 260 | 280 | Plasma concentration [1, 5]: <1 ng/mL; Plasma concentration [1, 6]: <1 ng/mL; peak plasma concentration relative to CL27c ([3]; 5 min after i.v. administration of CL27c): twice more abundant than CL27c; F (bioavailability) ([3]; CL27c P.O. 50 mg/kg): 4.80%; Tmax ([3]; CL27c P.O. 50 mg/kg): 30 min; t½ (elimination half-life) ([3]; CL27c P.O. 50 mg/kg): 25.8 min
